The target in this assay is KRAS G12C and cRAF (Ras-binding domain) interaction (Homo sapiens (Human), UniProt P01116, C118S/C51S/C80L/G12C). Briefly: Inhibition of KRAS G12C and cRAF binding (AlphaScreen). The procedure, abridged: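 IC50 values come from 4-parameter nonlinear regression of AlphaScreen signal (680 nm excitation, 570 nm emission). Compound plates sat 19-20 h at room temperature before RBD and donor/acceptor beads were added in Hepes pH 7.4 buffer with 150 mM NaCl, 5 mM MgCl2, 2% DMSO for 60-90 min; biotin-AviTag-GST replaced RBD to flag assay-technology interferers.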
Chain of KRAS G12C and cRAF (Ras-binding domain) interaction (P01116 other isoform, or with tags, fused parts or gaps G12C/C51S/C80L/C118S): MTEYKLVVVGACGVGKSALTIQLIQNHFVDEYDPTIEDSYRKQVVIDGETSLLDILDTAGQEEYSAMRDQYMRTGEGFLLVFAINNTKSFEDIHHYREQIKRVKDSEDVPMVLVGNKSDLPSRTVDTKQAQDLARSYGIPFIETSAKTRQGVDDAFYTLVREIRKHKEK

[1] abbreviates: additional exemplary compounds, KRAS G12C and cRAF binding, read-out: RAF1 RBD IC50.
Where [2] appears, read: GMPPNP-loaded KRAS G12C, 19-20 hours incubation with compound, read-out: IC50 (Inhibition of KRAS G12C and cRAF Binding).

We go through 35 compounds from patent publication US20250019387A1 (Frontier Medicines Corporation, priority 0001, published 2025).

Read-outs that look alike come from different tables or passages of the source. A value given as a limit tells only on which side of the number the result lay.

With `Cc1nccc(/C=C/C(=O)N2C3CC2CN(c2nc(OC[C@@]45CCCN4C[C@H](F)C5)nc4c(F)c(-c5cccc6cccc(Cl)c56)ncc24)C3)n1`, under setting [1], the IC50 is above 500 nM.
On the same count and under the same terms, next, `Cc1nccc(/C=C/C(=O)N2[C@@H]3CC[C@H]2CN(c2nc(OC[C@@]45CCCN4C[C@H](F)C5)nc4c(F)c(-c5cccc6cccc(Cl)c56)ncc24)C3)n1`: above 500 nM.
Still for that read-out and setting: next, `C=CC(=O)N1CC[C@@H](N(C)c2nc(OC[C@@]34CCCN3C[C@H](F)C4)nc3c2CCN(c2cccc4cccc(Cl)c24)C3)C1`: 100 to 500 nM.
Take `C=CC(=O)N1C[C@H](N(C)c2nc(OC[C@@]34CCCN3C[C@H](F)C4)nc3c2CCN(c2cccc4cccc(Cl)c24)C3)C[C@H]1CC#N`: the IC50 under setting [1] was 100 to 500 nM.
The same measure, in the same setting: next, `C=CC(=O)N1CC(CN(C)c2nc(OC[C@@]34CCCN3C[C@H](O)C4)nc3c(F)c(-c4cccc5cccc(Cl)c45)ncc23)C1`: above 500 nM.
Still for that read-out and setting: next, `O=C(/C=C/CN1C2CCC1COC2)N1CCN(c2nc(OC[C@@]34CCCN3C[C@H](F)C4)nc3c(F)c(-c4cccc5cccc(Cl)c45)ncc23)C2CC21` (some centres unmarked): above 500 nM.
On the same count and under the same terms, next, `C#Cc1c(F)ccc2cccc(-c3ncc4c(N(C)[C@@H]5CCN(C(=O)/C=C/c6cccnc6)C5)nc(OC[C@@]56CCCN5C[C@H](F)C6)nc4c3F)c12`: above 500 nM.
Consider `COC(=O)/C=C/C(=O)N1CC[C@@H](N(C)c2nc(OC[C@@H]3CCCN3C)nc3c2CCN(c2cccc4cccc(Cl)c24)C3)C1` [Example 10, methyl(E)-4-((R)-3-((7-(8-chloronaphthalen-1-yl)-2-(((S)-1-methylpyrrolidin-2-yl)methoxy)-5,6,7,8-tetrahydropyrido[3,4-d]pyrimidin-4-yl)(methyl)amino)pyrrolidin-1-yl)-4-oxobut-2-enoate], for which the IC50 under setting [2] lay in the range of 10 to 100 nM.
For `C#Cc1c(F)ccc2cccc(-c3ncc4c(N(C)[C@@H]5CCN(C(=O)/C=C/CN6[C@@H]7CC[C@H]6COC7)C5)nc(OC[C@@]56CCCN5C[C@H](F)C6)nc4c3F)c12` [Example 292, (E)-4-((1R,5S)-3-oxa-8-azabicyclo[3.2.1]octan-8-yl)-1-((R)-3-((7-(8-ethynyl-7-fluoronaphthalen-1-yl)-8-fluoro-2-(((2R,7aS)-2-fluorotetrahydro-1H-pyrrolizin-7a(5H)-yl)methoxy)pyrido[4,3-d]pyrimidin-4-yl)(methyl)amino)pyrrolidin-1-yl)but-2-en-1-one], the IC50 under setting [2] is below 10 nM.
With `CN(CCS(=O)(=O)/C=C/CN1CCC(F)(F)C1)c1nc(OCC23CCCN2CCC3)nc2c1CCN(c1cccc3cccc(Cl)c13)C2`, the half-inhibitory concentration (IC50) under setting [1] is above 500 nM.
On the same count and under the same terms, next, `CN(CCS(=O)(=O)/C=C/CN1CC(F)(F)C1)c1nc(OC[C@@H]2CCCN2C)nc2c(F)c(-c3cccc4cccc(Cl)c34)ncc12`: above 500 nM; `C=CS(=O)(=O)[C@H]1C[C@H](N(C)c2nc(OCC34CCCN3CCC4)nc3c2CCN(c2cccc4cccc(Cl)c24)C3)C1`: 100 to 500 nM; `O=C(/C=C/CN1CCOCC1)N1CCCN(c2nc(OC[C@@]34CCCN3C[C@H](F)C4)nc3c(F)c(-c4cccc5cccc(Cl)c45)ncc23)CC1`: above 500 nM.
Take `CN(c1nc(OCC23CCCN2CCC3)nc2c(F)c(-c3cccc4cccc(Cl)c34)ncc12)[C@@H]1CCN(C(=O)/C=C/c2nc(C(C)(C)C)no2)C1` [Example 147, (R,E)-3-(3-(tert-butyl)-1,2,4-oxadiazol-5-yl)-1-(3-((7-(8-chloronaphthalen-1-yl)-8-fluoro-2-((hexahydro-1H-pyrrolizin-7a-yl)methoxy)pyrido[4,3-d]pyrimidin-4-yl)(methyl)amino)pyrrolidin-1-yl)prop-2-en-1-one]: the IC50 under setting [2] lay within 10 to 100 nM.
The same measure, in the same setting: next, `C=CC(=O)N1CC(CN(C)c2nc(OC[C@@]34CCCN3C[C@H](F)C4)nc3c(F)c(-c4cccc5ccc(F)c(F)c45)ncc23)C1` [Example 246, 1-(3-(((7-(7,8-difluoronaphthalen-1-yl)-8-fluoro-2-(((2R,7aS)-2-fluorotetrahydro-1H-pyrrolizin-7a(5H)-yl)methoxy)pyrido[4,3-d]pyrimidin-4-yl)(methyl)amino)methyl)azetidin-1-yl)prop-2-en-1-one]: 10 to 100 nM.
The same measure, in the same setting: next, `CN(CC1CN(C(=O)/C=C/c2nc(C(C)(C)O)no2)C1)c1nc(OC[C@@]23CCCN2C[C@H](F)C3)nc2c(F)c(-c3cccc4cccc(Cl)c34)ncc12` [Example 105, (E)-1-(3-(((7-(8-chloronaphthalen-1-yl)-8-fluoro-2-(((2R,7aS)-2-fluorotetrahydro-1H-pyrrolizin-7a(5H)-yl)methoxy)pyrido[4,3-d]pyrimidin-4-yl)(methyl)amino)methyl)azetidin-1-yl)-3-(3-(2-hydroxypropan-2-yl)-1,2,4-oxadiazol-5-yl)prop-2-en-1-one]: below 10 nM.
Take `CN(c1nc(OC[C@@]23CCCN2C[C@H](F)C3)nc2c(F)c(-c3cccc4cccc(Cl)c34)ncc12)[C@@H]1CCN(C(=O)/C=C/c2cn(C)cn2)C1` [Example 135, (E)-1-((R)-3-((7-(8-chloronaphthalen-1-yl)-8-fluoro-2-(((2R,7aS)-2-fluorohexahydro-1H-pyrrolizin-7a-yl)methoxy)pyrido[4,3-d]pyrimidin-4-yl)(methyl)amino)pyrrolidin-1-yl)-3-(1-methyl-1H-imidazol-4-yl)prop-2-en-1-one]: the IC50 under setting [2] is 100 to 500 nM.
With `C=CC(=O)N1C2CCC1CN(c1nc(OCC34CCCN3CCC4)nc3c1CCN(c1cccc4cccc(Cl)c14)C3)C2`, under setting [1], the half-inhibitory concentration (IC50) was above 500 nM.
Still for that read-out and setting: next, `C=CC(=O)N1CC[C@@H](N(C)c2nc(OC[C@@]34CCCN3C[C@H](F)C4)nc3c(F)c(-c4cccc5ccc(F)c(Cl)c45)ncc23)C1`: 10 to 100 nM.
Turning to `COCCN(C)C/C=C/C(=O)N1CC[C@@H](N(C)c2nc(OC[C@@]34CCCN3C[C@H](F)C4)nc3c(F)c(-c4cccc5cccc(Cl)c45)ncc23)C1` [Example 235, (E)-1-((R)-3-((7-(8-chloronaphthalen-1-yl)-8-fluoro-2-(((2R,7aS)-2-fluorohexahydro-1H-pyrrolizin-7a-yl)methoxy)pyrido[4,3-d]pyrimidin-4-yl)(methyl)amino)pyrrolidin-1-yl)-4-((2-methoxyethyl)(methyl)amino)but-2-en-1-one], under setting [2], the IC50 was below 10 nM.
Same read-out and setting: next, `COC(=O)/C=C/C(=O)NCCN(C)c1nc(OCC23CCCN2CCC3)nc2c1CCN(c1cccc3cccc(Cl)c13)C2` [Example 13, Methyl(E)-4-((2-((7-(8-chloronaphthalen-1-yl)-2-((tetrahydro-1H-pyrrolizin-7a(5H)-yl)methoxy)-5,6,7,8-tetrahydropyrido[3,4-d]pyrimidin-4-yl)(methyl)amino)ethyl)amino)-4-oxobut-2-enoate]: 10 to 100 nM.
Take `CN(C)C/C=C/S(=O)(=O)CCN(C)c1nc(OCC23CCCN2CCC3)nc2c1CCN(c1cccc3cccc(Cl)c13)C2`: the IC50 under setting [1] was below 10 nM.
With `C=CS(=O)(=O)CCN(C)c1nc(OC[C@@H]2CCCN2C)nc2c(F)c(-c3cccc4cccc(Cl)c34)ncc12`, the IC50 under setting [1] lay in the range of 100 to 500 nM.
With `CN1CC(/C=C/C(=O)N2CC[C@@H](N(C)c3nc(OC[C@@]45CCCN4C[C@H](F)C5)nc4c(F)c(-c5cccc6ccc(F)c(Cl)c56)ncc34)C2)C1` [Example 127, (E)-1-((R)-3-((7-(8-chloro-7-fluoronaphthalen-1-yl)-8-fluoro-2-(((2R,7aS)-2-fluorotetrahydro-1H-pyrrolizin-7a(5H)-yl)methoxy)pyrido[4,3-d]pyrimidin-4-yl)(methyl)amino)pyrrolidin-1-yl)-3-(1-methylazetidin-3-yl)prop-2-en-1-one], under setting [2], the IC50 fell in the range of 100 to 500 nM.
Take `CN(C)C/C=C/C(=O)N1CC[C@@H](N(C)c2nc(OCC34CCCN3CCC4)nc3c(F)c(-c4cccc5cccc(Cl)c45)ncc23)C1`: under setting [1], the IC50 was 10 to 100 nM.
On the same count and under the same terms, next, `C=CC(=O)N1C[C@H](N(C)c2nc(OCC34CCCN3CCC4)nc3c2CCN(c2cccc4cccc(Cl)c24)C3)CC1C#N` (some centres unmarked): 100 to 500 nM.
Same read-out and setting: next, `CN(C)C/C=C/C(=O)N1CC[C@@H](N(C)c2nc(OCC34CCCN3CCC4)nc3c2CCN(c2cccc4ccc(F)c(Cl)c24)C3)C1`: 100 to 500 nM; `C=CC(=O)N1CC(CN(C)c2nc(OCC34CCCN3CCC4)nc3c(F)c(-c4cccc5cccc(Cl)c45)ncc23)C1`: 10 to 100 nM.
Regarding `C=CS(=O)(=O)CCCN(C)c1nc(OC[C@@H]2CCCN2C)nc2c1CCN(c1cccc3cccc(Cl)c13)C2` [Example 46, (S)-7-(8-chloronaphthalen-1-yl)-N-methyl-2-((1-methylpyrrolidin-2-yl)methoxy)-N-(3-(vinylsulfonyl)propyl)-5,6,7,8-tetrahydropyrido[3,4-d]pyrimidin-4-amine], the concentration for half-maximal inhibition (IC50) under setting [2] was above 500 nM.
Same read-out and setting: next, `CN(c1nc(OCC23CCCN2CCC3)nc2c(F)c(-c3cccc4cccc(Cl)c34)ncc12)[C@@H]1CCN(C(=O)/C=C/c2nc(C3COC3)no2)C1` [Example 155, (R,E)-1-(3-((7-(8-chloronaphthalen-1-yl)-8-fluoro-2-((tetrahydro-1H-pyrrolizin-7a(5H)-yl)methoxy)pyrido[4,3-d]pyrimidin-4-yl)(methyl)amino)pyrrolidin-1-yl)-3-(3-(oxetan-3-yl)-1,2,4-oxadiazol-5-yl)prop-2-en-1-one]: below 10 nM.
As for `O=C(/C=C/CN1CCOCC1)N1CC2(CCN(c3nc(OC[C@@]45CCCN4C[C@H](F)C5)nc4c(F)c(-c5cccc6cccc(Cl)c56)ncc34)C2)C1`, the IC50 under setting [1] is above 500 nM.
In the case of `C=CC(=O)N1CC[C@@H](N(CC)c2nc(OC[C@@]34CCCN3C[C@H](F)C4)nc3c(F)c(-c4cccc5cccc(Cl)c45)ncc23)C1`, under setting [1], the IC50 is above 500 nM.
In the case of `C=CC(=O)CCOc1nc(OC[C@@H]2CCCN2C)nc2c1CCN(c1cccc3ccccc13)C2`, the IC50 under setting [1] was above 500 nM.
Consider `C=CC(=O)N1C[C@@H](O)[C@@H](Nc2nc(OC[C@@]34CCCN3C[C@H](F)C4)nc3c(F)c(-c4cccc5cccc(Cl)c45)ncc23)C1`, for which, under setting [1], the IC50 is above 500 nM.
The same measure, in the same setting: next, `CCOC/C=C/S(=O)(=O)CCN(C)c1nc(OC[C@@H]2CCCN2C)nc2c(F)c(-c3cccc4cccc(Cl)c34)ncc12`: above 500 nM.
